Measured values published in US20100324285A1, “ANTIINFLAMMATORY AGENT COMPRISING 2-AMINOPHENOL OR DERIVATIVE THEREOF AS ACTIVE INGREDIENT” (priority 2006, published 2010).

Test system: RBL-2H3
Assay: Degranulation reaction of basocyte (β-hexosaminidase release)
Type: cell-based, rat
Method: Degranulation rate (%) and inhibition rate of degranulation (%) were calculated based on the measurements of β-hexosaminidase activity in the granules released from the cells by degranulation reaction.
Rat cancer cells from basocyte RBL-2H3(catalognumber“JCRB0023”, commercialized by Health Science Research Resources Bank of Japan Health Sciences Foundation), known to be degranulated by cross-linkage of IgE, were used after cultured in a MEM medium (commercialized by Nissui Pharmaceutical Co., Ltd.) supplemented with 10% (v/v) FCS.
The above cells were recovered from a flask by conventional trypsin-EDTA treatment, then suspended in a MEM medium supplemented with 10% (v/v) FCS to give a cell concentration of 5×10^5 cells/ml. The suspension was inoculated to a 24-well microplate in a volume of 400 μl per well, cultured in a 5% (v/v) carbon dioxide incubator for 3 to 5 hours, then admixed with 0.625 μg/ml of anti dinitrophenol (hereinafter abbreviated as “DNP”) mouse IgE (commercialized by Sigma-Aldrich, Inc., diluted by MEM medium supplied with 10% (v/v) FCS) in a volume of 100 μl per well to sensitize the cells by IgE (a final concentration of the anti DNP-IgE was 0.125 μg/ml). After the cells were cultured in the 5% (v/v) carbon dioxide incubator overnight, the supernatant was removed by suction, and then each well was washed twice with Siraganian buffer (119 mM NaCl, 5 mM KCl, 0.4 mM MgCl2, 25 mM piperazine-N,N″-bis(2-ethane sulfonic acid) (PIPES), 40 mM NaOH, pH 7.2) by 500 μl per well. After admixed with Siraganian buffer containing 0.1% bovine serum albumin (BSA), 5.6 mM glucose and 1 mM CaCl2 (hereinafter described as “BSA-containing Siraganian buffer) in a volume of 160 μl per well, the microplate was warmed at 37° C. for 15 minutes. As test samples, 2-aminophenoxazine-3-one (questiomycin A), arbutin having skin-whitening effect and oxatomide used as therapeutic agents for allergic diseases (positive control) were diluted with BSA-containing Siraganian buffer to give the concentrations shown in Table 3, any of the test samples was added by 20 μl per well, then the microplate was warmed at 37° C. for 15 minutes (wells with the test samples). The well with any of the test samples was admixed with DNP-albumin (commercialized by Sigma-Aldrich, Inc.) diluted with BSA-containing Siraganian buffer to give a concentration of 50 μg/ml by 20 μl per well, and warmed at 37° C. for 15 minutes. After the 24-well microplate was cooled on ice for 10 minutes, the supernatant was collected and 100 μl thereof was injected into a 96-well microplate to measure the β-hexosaminidase activity in the supernatant. As negative control, BL-2H3 cells were cultured and treated in the same way as the wells admixed with the test samples except for that FCS-supplemented MEM medium containing no antibody was used, and the β-hexosaminidase activity in the supernatant was measured (the well without IgE sensitization). After the supernatants were removed from some of the wells without IgE sensitization, the wells were washed twice with BSA-containing Siraganian buffer and admixed with BSA-containing Siraganian buffer by 200 μl per well. The cells were broken by twice repeating freezing at −80° C. and thawing, whole medium containing the broken cells was collected, centrifuged at 1,500 rpm for 10 minutes, and then 100 μl of the supernatant was injected into a 96-well microplate to measure the β-hexosaminidase activity of the whole granule extract.
Each well of the 96-well microplate injected with any of the supernatant from the wells with the test samples, the supernatant from the wells without IgE sensitization or the whole granule extract described above was admixed with 50 μl of citrate buffer (pH 4.5) containing 1 mM 4-nitrophenyl-N-acetyl-β-glucosaminide (PNAG) as substrate, kept at 37° C. for 1 hour, and then the reaction was stopped by adding 50 μl of 0.1 M sodium carbonate (pH 10.5). […]

## Nc1cc2nc3ccccc3oc-2cc1=O [2-Aminophenoxazine-3-one, 2-aminophenoxazine-3-one]
Rattus norvegicus, RBL-2H3, 0.63 μM, read-out: Inhibition intensity of degranulation
  inhibition at 0.63 µM: -30 to 30%
Rattus norvegicus, RBL-2H3, 5 μM, read-out: Inhibition intensity of degranulation
  inhibition at 5 µM: 30 to 50%
Rattus norvegicus, RBL-2H3, 10 μM, read-out: Inhibition intensity of degranulation
  inhibition at 10 µM: ≥ 50%
Rattus norvegicus, RBL-2H3, 23 μM, read-out: Inhibition intensity of degranulation
  inhibition at 23 µM: ≥ 50%
Rattus norvegicus, RBL-2H3, 31.3 μM, read-out: Inhibition intensity of degranulation
  inhibition at 31.3 µM: ≥ 50%
Rattus norvegicus, RBL-2H3, 40 μM, read-out: Inhibition intensity of degranulation
  inhibition at 40 µM: ≥ 50%
Summary of Table 3
  concentration at which inhibiting activity on degranulation was exerted: ≥ 5 µM
